# Paper PMC12396409, “Screening and hit evaluation of a microbial metabolite library against the pathogenic Plasmodium falciparum and Toxoplasma gondii parasites” (International Journal for Parasitology: Drugs and Drug …, 2025)
# Like-named read-outs stand apart in the source and are kept apart here.
# Key:
# [1] = tested on: P. falciparum 3D7 parasites; test: P. falciparum growth inhibition assay, 1-cycle (72 h treatment), SYBR DNA staining (library screen at 2 μg/mL and dose-response); type: cell-based, Plasmodium falciparum
# [2] = tested on: P. falciparum 3D7 parasites; test: P. falciparum growth inhibition assay, 2-cycle (120 h treatment), delayed-death screen and dose-response; type: cell-based, Plasmodium falciparum
# [3] = tested on: T. gondii RH strain (RH-Tub-eYFP) tachyzoites; test: microbe, parasite or virus in culture; type: cell-based, Toxoplasma gondii
# [4] = P. falciparum 3D7, 72 h, library screen at 2 μg/mL, % growth, replicate 1
# [5] = P. falciparum 3D7, 72 h, library screen at 2 μg/mL, % growth, replicate 2
# [6] = P. falciparum 3D7, 120 h, library screen at 2 μg/mL, % growth, replicate 1
# [7] = P. falciparum 3D7, 120 h, library screen at 2 μg/mL, % growth, replicate 2
# [8] = T. gondii RH, 72 h, library screen at 2 μg/mL, % growth, replicate 1
# [9] = T. gondii RH, 72 h, library screen at 2 μg/mL, % growth, replicate 2
# [10] = P. falciparum, 72 h, parasite screen 2 μg/mL, % growth, replicate 1
# [11] = P. falciparum, 72 h, parasite screen 2 μg/mL, % growth, replicate 2
# [12] = P. falciparum, 120 h, parasite screen 2 μg/mL, % growth, replicate 1
# [13] = P. falciparum, 120 h, parasite screen 2 μg/mL, % growth, replicate 2
# [14] = T. gondii, 72 h, parasite screen 2 μg/mL, % growth, replicate 1
# [15] = T. gondii, 72 h, parasite screen 2 μg/mL, % growth, replicate 2
# [16] = library screen at 2 μg/mL, 72 h, % growth, replicate 1
# [17] = library screen at 2 μg/mL, 72 h, % growth, replicate 2
structure (smiles),measurement,setting,value
CC(=O)OC1CCC2(C)C(CCC3C2CC(=O)C2(C)C3CC3OC4(CCC(C)CO4)C(C)C32)C1 (centres unmarked) [BIA-H1764],Pf_72h_%Growth_Rep1,[1]; [4],86.38%
same,Pf_72h_%Growth_Rep2,[1]; [5],124.08%
same,Pf_120h_%Growth_Rep1,[2]; [6],85.47%
same,Pf_120h_%Growth_Rep2,[2]; [7],116.07%
same,Tg_72h_%Growth_Rep1,[3]; [8],117.31%
same,Tg_72h_%Growth_Rep2,[3]; [9],105.95%
CC(C)[C@H]1C(=O)OC[C@H](NC(=O)c2nc3ccccc3cc2O)C(=O)N2CCCC[C@@H]2C(=O)NCC(=O)N(C)CC(=O)N(C)[C@H](C(C)C)C(=O)OC[C@@H](NC(=O)c2nc3ccccc3cc2O)C(=O)N2CCCC[C@@H]2C(=O)NCC(=O)N(C)CC(=O)N1C [Sandramycin],Pf_72h_%Growth_Rep1,[1]; [10],-1.10%
same,Pf_72h_%Growth_Rep2,[1]; [11],-0.11%
same,Pf_120h_%Growth_Rep1,[2]; [12],-0.53%
same,Pf_120h_%Growth_Rep2,[2]; [13],18.12%
same,Tg_72h_%Growth_Rep1,[3]; [14],1.61%
same,Tg_72h_%Growth_Rep2,[3]; [15],2.90%
C/C=C/[C@@H]1C=C[C@@H]2C[C@H](C)CC[C@H]2[C@]1(C)/C(O)=C1/C(=O)[C@H](CO)N(C)C1=O [Equisetin],Pf_72h_%Growth_Rep1,[1]; [16],83.58%
same,Pf_72h_%Growth_Rep2,[1]; [17],91.13%
same,Pf_120h_%Growth_Rep1,"[2]; library screen at 2 μg/mL, 120 h, % growth, replicate 1",83.53%
same,Pf_120h_%Growth_Rep2,"[2]; library screen at 2 μg/mL, 120 h, % growth, replicate 2",117.48%
same,Tg_72h_%Growth_Rep1,[3]; [16],89.36%
same,Tg_72h_%Growth_Rep2,[3]; [17],86.41%
CCCC(=O)N[C@H]1CCOC1=O [Butyryl-L-homoserine lactone],Pf_72h_%Growth_Rep1,"[1]; P. falciparum, 72 h, screen at 2 μg/mL, replicate 1",70.61%
same,Pf_72h_%Growth_Rep2,"[1]; P. falciparum, 72 h, screen at 2 μg/mL, replicate 2",82.94%
same,Pf_120h_%Growth_Rep1,"[2]; P. falciparum, 120 h, screen at 2 μg/mL, replicate 1",71.18%
same,Pf_120h_%Growth_Rep2,"[2]; P. falciparum, 120 h, screen at 2 μg/mL, replicate 2",93.77%
same,Tg_72h_%Growth_Rep1,"[3]; T. gondii, 72 h, screen at 2 μg/mL, replicate 1",135.04%
same,Tg_72h_%Growth_Rep2,"[3]; T. gondii, 72 h, screen at 2 μg/mL, replicate 2",102.04%
CO[C@H]1C[C@H](O[C@H]2[C@H](C)O[C@@H](O[C@@H]3/C(C)=C/C[C@@H]4C[C@@H](C[C@]5(C=C[C@H](C)[C@@H](C(C)C)O5)O4)OC(=O)[C@@H]4C=C(C)[C@@H](O)[C@H]5OC/C(=C\C=C\[C@@H]3C)[C@]54O)C[C@@H]2OC)O[C@@H](C)[C@H]1NC(C)=O [Eprinomectin B1b],Pf_72h_%Growth_Rep1,[1],56.32%
same,Pf_72h_%Growth_Rep2,[1],35.21%
same,Pf_120h_%Growth_Rep1,[2],33.01%
same,Pf_120h_%Growth_Rep2,[2],22.71%
same,Tg_72h_%Growth_Rep1,[3],157.07%
same,Tg_72h_%Growth_Rep2,[3],101.19%
C=CC(C)(C)c1[nH]cnc1/C=C1/NC(=O)[C@@H]2C[C@@]3(C(C)(C)C=C)c4ccccc4N[C@H]3N2C1=O [Roquefortine E],Pf_72h_%Growth_Rep1,[1]; [10],11.66%
same,Pf_72h_%Growth_Rep2,[1]; [11],6.85%
same,Pf_120h_%Growth_Rep1,[2]; [12],14.59%
same,Pf_120h_%Growth_Rep2,[2]; [13],17.38%
same,Tg_72h_%Growth_Rep1,[3]; [14],75.06%
same,Tg_72h_%Growth_Rep2,[3]; [15],97.61%
COc1c(-c2ccccc2)c2ccccc2[nH]c1=O [BIA-M1149],Pf_72h_%Growth_Rep1,"[1]; P. falciparum 3D7, 72 h, parasite screen at 2 μg/mL, % growth, replicate 1",89.32%
same,Pf_72h_%Growth_Rep2,"[1]; P. falciparum 3D7, 72 h, parasite screen at 2 μg/mL, % growth, replicate 2",119.11%
same,Pf_120h_%Growth_Rep1,"[2]; P. falciparum 3D7, 120 h, parasite screen at 2 μg/mL, % growth, replicate 1",106.21%
same,Pf_120h_%Growth_Rep2,"[2]; P. falciparum 3D7, 120 h, parasite screen at 2 μg/mL, % growth, replicate 2",123.66%
same,Tg_72h_%Growth_Rep1,"[3]; T. gondii, 72 h, parasite screen at 2 μg/mL, % growth, replicate 1",136.04%
same,Tg_72h_%Growth_Rep2,"[3]; T. gondii, 72 h, parasite screen at 2 μg/mL, % growth, replicate 2",92.92%
C=C[C@]1(C)C[C@@H](OC(=O)CO)[C@]2(C)[C@H](C)CC[C@]3(CCC(=O)[C@H]32)[C@@H](C)[C@@H]1O [Pleuromutilin],IC50,"[1]; Plasmodium falciparum, 3D7, 72 h treatment, mean ± S.D., n ≥ 3, read-out: IC50 (μM), P. falciparum",> 1 µM
same,Screen (P. falciparum),"[1]; library screen at 2 μg/mL, 3D7, 72 h, DD from the 120 h timepoint","I, I"
same,activity in 120 h dose-response assay against P. falciparum,[2]; 120 h,did not display any activity
same,IC50,"[3]; Toxoplasma gondii, RH strain, 72 h, mean ± S.D., n ≥ 3, read-out: IC50 (μM), T. gondii (converted)",> 1 µM
same,Screen (T. gondii),"[3]; library screen at 2 μg/mL, RH strain, 72 h","I, I"
COc1ccc(C2CC(=O)c3c(O)cc(OC4OC(COC5OC(C)C(O)C(O)C5O)C(O)C(O)C4O)cc3O2)cc1O (centres unmarked) [BIA-H1766],Pf_72h_%Growth_Rep1,[1]; [4],83.53%
same,Pf_72h_%Growth_Rep2,[1]; [5],99.72%
same,Pf_120h_%Growth_Rep1,[2]; [6],111.90%
same,Pf_120h_%Growth_Rep2,[2]; [7],121.98%
same,Tg_72h_%Growth_Rep1,[3]; [8],124.64%
same,Tg_72h_%Growth_Rep2,[3]; [9],85.96%
